ChEMBL document CHEMBL3804831, “N-Acyl Dehydrotyrosines, Tyrosinase Inhibitors from the Marine Bacterium Thalassotalea sp. PP2-459” (J Nat Prod, 2016)
Active and inactive are the calls of the source. The calls are words filed in the database; no cut-off is given here.

Key:
[1] = biological target: T1, Tyrosinase (Agaricus bisporus) (UniProt O42713); assay: Inhibition of mushroom tyrosinase at 1 mM using L-tyrosine as a substrate after 30 mins by spectrophotometric method
T1 sequence (whole entry): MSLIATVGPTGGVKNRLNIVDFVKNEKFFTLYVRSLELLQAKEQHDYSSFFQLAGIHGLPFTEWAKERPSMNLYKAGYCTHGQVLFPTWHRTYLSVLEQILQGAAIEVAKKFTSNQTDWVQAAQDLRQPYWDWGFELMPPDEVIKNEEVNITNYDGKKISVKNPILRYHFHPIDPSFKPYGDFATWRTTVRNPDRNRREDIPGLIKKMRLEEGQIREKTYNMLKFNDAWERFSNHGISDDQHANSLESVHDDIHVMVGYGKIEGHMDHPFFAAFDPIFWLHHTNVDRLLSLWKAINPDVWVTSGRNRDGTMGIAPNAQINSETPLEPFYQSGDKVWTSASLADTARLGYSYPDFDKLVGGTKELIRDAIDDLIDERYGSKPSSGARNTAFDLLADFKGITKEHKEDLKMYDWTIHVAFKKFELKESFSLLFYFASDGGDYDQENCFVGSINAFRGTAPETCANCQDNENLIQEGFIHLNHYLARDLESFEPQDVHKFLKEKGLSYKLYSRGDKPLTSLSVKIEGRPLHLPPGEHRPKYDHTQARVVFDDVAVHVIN

Tyrosinase = biological target: T2, Tyrosinase (Agaricus bisporus, UniProt O42713)
T2 sequence (O42713 whole entry): T1 sequence (whole entry)
Description: Inhibition of mushroom tyrosinase using L-tyrosine as a substrate after 30 mins by spectrophotometric method

inhibition [1]	IC50 (Tyrosinase) [µM]	Structure (SMILES)
inactive	–	CCCCCCCCCC(=O)N/C(=C\c1ccc(O)cc1)C(N)=O
inactive	–	CC(C)CCCCCCC(=O)N/C(=C\c1ccc(O)cc1)C(N)=O
–	470	CC(C)CCCCCCC(=O)N/C(=C\c1ccc(O)cc1)C(=O)O
–	130	CCCCCCCCCC(=O)N/C(=C\c1ccc(O)cc1)C(=O)O
–	280	CCCCCCCCC(=O)N/C(=C\c1ccc(O)cc1)C(=O)O
